Data taken from US9920017B2, “Heterocyclic compounds as pesticides” (BAYER CROPSCIENCE AKTIENGESELLSCHAFT, priority 2014, dated 2018).
Where two headings read alike, the source gives them in different places.

Tests used:
Meloidogyne incognita = Meloidogyne incognita test (MELGIN); type: in vivo; conditions: 20 ppm; lettuce; after 14 days
Method: Meloidogyne incognita Test (MELGIN) Solvent: 125.0 parts by weight of acetone To produce a suitable active ingredient formulation, 1 part by weight of active ingredient is mixed with the stated amount of solvent and the concentrate is diluted with water to the desired concentration. Vessels are filled with sand, active ingredient solution, an egg/larvae suspension of the southern root-knot nematode (Meloidogyne incognita) and lettuce seeds. The lettuce seeds germinate and the plants develop. The galls develop on the roots. After 14 days, the nematicidal efficacy in % is determined by the formation of galls. 100% means that no galls were found; 0% means that the number of galls on the treated plants corresponds to the untreated control.

[1] = Determination of log P values by HPLC (reversed-phase C18); type: physicochemical; conditions: for chromatographic logP: reversed-phase C18 HPLC column; for logP (neutral): compounds of formula (IIa-1), R3 hydrogen
Method: 1) Description of Method for Determination of the Log P Values ([…]) The log P values given in the table were determined in accordance with EEC Directive 79/831 Annex V.A8 by HPLC (High Performance Liquid Chromatography) using a reversed-phase column (C 18). Temperature: 55° C. […] Gradient: from 10% eluent A/90% eluent B to 95% eluent A/5% eluent B in 4.25 min. Calibration was effected with unbranched alkan-2-ones (having 3 to 16 carbon atoms) with known log P values (log P values determined on the basis of the retention times by linear interpolation between two successive alkanones). The lambda max values were determined in the maxima of the chromatographic signals using the UV spectra from 200 nm to 400 nm.

Cooperia curticei = Cooperia curticei test; type: in vivo; conditions: 20 ppm; nematode larvae; after 5 days
Method: Solvent: dimethyl sulphoxide
To produce an appropriate active ingredient formulation, 10 mg of active ingredient are mixed with 0.5 ml of dimethyl sulphoxide and the concentrate is diluted with “Ringer's solution” to the desired concentration.
Vessels containing the active ingredient formulation of the desired concentration are populated with about 40 nematode larvae (Cooperia curticei).
After 5 days, the kill in % is determined 100% means that all the larvae have been killed; 0% means that none of the larvae have been killed.

[2] = HPLC, reversed-phase C18, 55° C., final compounds table
[3] = HPLC-MS, preparation examples, read-out: log P (neutral)
[4] = pH 3.4, HPLC-MS, preparation examples, read-out: log P

| SMILES | log P neutral [1, 2] | nematicidal efficacy (formation of galls) (Meloidogyne incognita) | also measured |
| --- | --- | --- | --- |
| O=C(Nc1ncn(-c2ccccc2Cl)n1)c1ccccc1Br [Compound I-1-4] | 1.97 | 90% | – |
| O=C(Nc1ncn(-c2c(F)cccc2F)n1)c1ccccc1Cl [Compound I-1-13, 2-Chloro-N-[1-(2,6-difluorophenyl)-1H-1,2,4-triazol-3-yl]benzamide] | – | 100% | chromatographic logP [1, 3]: 1.73 |
| CCc1ccccc1C(=O)Nc1ncn(-c2c(F)cccc2F)n1 [Compound I-1-15] | – | 100% | chromatographic logP [1, 3]: 2.05 |
| O=C(Nc1ncn(-c2c(F)cccc2F)n1)c1c(F)cccc1C(F)(F)F [Compound I-1-20] | 2.04 | 100% | efficacy (kill) (Cooperia curticei): 100% |
| O=C(Nc1ncn(-c2c(F)cccc2F)n1)c1ccccc1[N+](=O)[O-] [Compound I-1-22] | 1.54 | 90% | – |
| O=C(Nc1ncn(-c2c(F)cccc2C(F)(F)F)n1)c1ccccc1I [Compound I-1-28, N-{1-[2-Fluoro-6-(trifluoromethyl)phenyl]-1H-1,2,4-triazol-3-yl}-2-iodobenzamide] | – | 100% | efficacy (kill) (Cooperia curticei): 80%; chromatographic logP [1, 3]: 2.21 |
| O=C(Nc1ncn(-c2c(F)cccc2Cl)n1)c1ccccc1I [Compound I-1-35] | 2.04 | 100% | – |
| O=C(Nc1ncn(-c2c(Cl)cccc2Cl)n1)c1ccccc1Cl [Compound I-1-46] | 2.03 | 90% | – |
| O=C(Nc1ncn(-c2c(F)ccc(F)c2F)n1)c1ccccc1Cl [Compound I-1-58] | 1.91 | 100% | – |
| CCc1ccccc1C(=O)Nc1ncn(-c2c(F)ccc(F)c2F)n1 [Compound I-1-60] | 2.21 | 100% | – |
| O=C(Nc1ncn(-c2c(F)cc(F)cc2F)n1)c1ccccc1Cl [Compound I-1-62] | 1.85 | 100% | – |
| O=C(Nc1ncn(-c2c(F)cc(F)cc2F)n1)c1ccccc1I [Compound I-1-63] | 2.00 | 100% | efficacy (kill) (Cooperia curticei): 100% |
| CCc1ccccc1C(=O)Nc1ncn(-c2c(F)cc(F)cc2F)n1 [Compound I-1-64] | 2.14 | 100% | – |
| O=C(Nc1ncn(-c2c(F)c(F)c(F)c(F)c2F)n1)c1ccccc1I [Compound I-1-67] | 2.43 | 90% | – |
| O=C(Nc1ncn(-c2ncc(F)cc2F)n1)c1ccccc1C(F)(F)F [Compound I-1-89, N-[1-(3,5-Difluoropyridin-2-yl)-1H-1,2,4-triazol-3-yl]-2-(trifluoromethyl)benzamide] | – | 100% | chromatographic logP [1, 4]: 1.76; chromatographic logP ([1]; HPLC, reversed-phase C18, 55° C., final compounds table, read-out: log P neutral): 1.76 |
| O=C(Nc1ncn(-c2c(F)c(F)cc(F)c2F)n1)c1ccccc1Cl [Compound I-1-92] | 2.04 | 90% | – |
| Nc1ncn(-c2cc(Cl)ccc2Cl)n1 [IIa-1 R1=Cl R2m=5% Cl:] | – | – | logP (neutral) [1]: 1.44 |
| Nc1ncn(-c2c(Cl)cccc2Cl)n1 [IIa-1 R1=Cl R2m=6% Cl:] | – | – | logP (neutral) [1]: 0.94 |

| SMILES | log P neutral [1, 2] | nematicidal efficacy (formation of galls) (Meloidogyne incognita) | also measured |
| --- | --- | --- | --- |
| CCc1cccc(Cl)c1-n1cnc(N)n1 [IIa-1 R1=Cl R2m=6-C2H5] | – | – | logP (neutral) [1]: 1.12 |
| Cc1cccc(Cl)c1-n1cnc(N)n1 [IIa-1 R1=Cl R2m=6-CH3] | – | – | logP (neutral) [1]: 1.12 |
| Nc1ncn(-c2c(F)cccc2Cl)n1 [IIa-1 R1=Cl R2m=6-F] | – | – | logP (neutral) [1]: 0.86 |
| Nc1ncn(-c2ccccc2Cl)n1 [IIa-1 R1=Cl R2m=—] | – | – | logP (neutral) [1]: 0.96 |
| Nc1ncn(-c2c(F)c(F)c(F)c(F)c2F)n1 [IIa-1 R1=F R2m=3,4,5,6-F4] | – | – | logP (neutral) [1]: 1.31 |
| Nc1ncn(-c2c(F)ccc(F)c2F)n1 [IIa-1 R1=F R2m=3,6-F2-phenyl] | – | – | logP (neutral) [1]: 0.84 |
| Nc1ncn(-c2c(F)cc(F)cc2F)n1 [IIa-1 R1=F R2m=4,6-F2] | – | – | logP (neutral) [1]: 0.82 |
| Cc1cccc(F)c1-n1cnc(N)n1 [IIa-1 R1=F R2m=6-CH3] | – | – | logP (neutral) [1]: 1.03 |
| Nc1ncn(-c2c(F)cccc2I)n1 [IIa-1 R1=F R2m=6-I] | – | – | logP (neutral) [1]: 1.07 |
| Nc1ncn(-c2ccccc2F)n1 [IIa-1 R1=F R2m=—] | – | – | logP (neutral) [1]: 0.86 |
| Nc1ncn(-c2ccccc2I)n1 [IIa-1 R1=I R2m=—] | – | – | logP (neutral) [1]: 1.13 |
| Nc1ncn(-c2ccccc2OC(F)(F)F)n1 [IIa-1 R1=OCF3 R2m=—] | – | – | logP (neutral) [1]: 1.44 |
| CO/C(=N\C#N)c1ccccc1 [Methyl N-cyanobenzenecarboximidoate] | – | – | chromatographic logP [1, 3]: 1.83 |
| O=C(Nc1nn[nH]n1)c1ccccc1C(F)(F)F [N-(2H-Tetrazol-5-yl)-2-(trifluoromethyl)benzamide] | – | – | chromatographic logP [1, 4]: 1.17 |
| O=C(Nc1ncn(-c2c(F)cccc2F)n1)c1ccccc1 [N-[1-(2,6-Difluorophenyl)-1H-1,2,4-triazol-3-yl]benzamide] | – | – | chromatographic logP [1, 3]: 1.59 |
| O=C(Nc1ncn(-c2c(F)cccc2Br)n1)c1ccccc1 [N-[1-(2-Bromo-6-fluorophenyl)-1H-1,2,4-triazol-3-yl]benzamide] | – | – | chromatographic logP [1, 3]: 1.79 |
| O=C(Nc1ncn(-c2ncc(F)cc2F)n1)c1ccccc1 [N-[1-(3,5-Difluoropyridin-2-yl)-1H-1,2,4-triazol-3-yl]benzamide] | – | – | chromatographic logP [1, 3]: 1.36 |
| O=C(Nc1ncn(-c2c(F)cccc2C(F)(F)F)n1)c1ccccc1 [N-{1-[2-Fluoro-6-(trifluoromethyl)phenyl]-1H-1,2,4-triazol-3-yl}benzamide] | – | – | chromatographic logP [1, 3]: 1.95 |

The next lines start with results.

| log P neutral [1, 2] | SMILES | nematicidal efficacy (formation of galls) (Meloidogyne incognita) | also measured |
| --- | --- | --- | --- |
| 2.24 | O=C(Nc1ncn(-c2ccccc2C(F)(F)F)n1)c1ccccc1C(F)(F)F [Compound I-1-8] | 100% | – |
| 1.80 | O=C(Nc1ncn(-c2c(F)cccc2F)n1)c1ccccc1Br [Compound I-1-12] | 90% | – |
| 1.72 | Cc1ccccc1C(=O)Nc1ncn(-c2c(F)cccc2F)n1 [Compound I-1-14] | 100% | – |
| 2.09 | O=C(Nc1ncn(-c2c(F)cccc2F)n1)c1cc(F)ccc1C(F)(F)F [Compound I-1-19] | 100% | – |
| 2.25 | O=C(Nc1ncn(-c2c(F)cccc2C(F)(F)F)n1)c1ccccc1C(F)(F)F [Compound I-1-26] | 100% | efficacy (kill) (Cooperia curticei): 90% |
| 2.06 | O=C(Nc1ncn(-c2c(F)cccc2C(F)(F)F)n1)c1ccccc1Cl [Compound I-1-27] | 90% | – |
| 2.39 | CCc1ccccc1C(=O)Nc1ncn(-c2c(F)cccc2C(F)(F)F)n1 [Compound I-1-29] | 100% | – |
| 1.95 | O=C(Nc1ncn(-c2c(F)cccc2Br)n1)c1ccccc1Cl [Compound I-1-31] | 100% | – |
| 2.08 | O=C(Nc1ncn(-c2c(F)cccc2Br)n1)c1ccccc1I [Compound I-1-32] | 100% | – |
| 2.26 | Cc1cccc(Cl)c1-n1cnc(NC(=O)c2ccccc2C(F)(F)F)n1 [Compound I-1-40] | 90% | – |
| 2.55 | CCc1cccc(Cl)c1-n1cnc(NC(=O)c2ccccc2C(F)(F)F)n1 [Compound I-1-42] | 90% | – |
| 2.09 | O=C(Nc1ncn(-c2c(Cl)cccc2Cl)n1)c1ccccc1Br [Compound I-1-45] | 100% | – |
| 2.05 | O=C(Nc1ncn(-c2c(F)cc(F)cc2F)n1)c1ccccc1C(F)(F)F [Compound I-1-61] | 100% | efficacy (kill) (Cooperia curticei): 80% |
| 2.20 | O=C(Nc1ncn(-c2ccccc2I)n1)c1ccccc1C(F)(F)F [Compound I-1-75] | 90% | – |
| 2.32 | O=C(Nc1ncn(-c2c(Br)cccc2Br)n1)c1ccccc1C(F)(F)F [Compound I-1-80] | 100% | – |
| 2.46 | O=C(Nc1ncn(-c2c(Br)cc(F)cc2Br)n1)c1ccccc1C(F)(F)F [Compound I-1-87] | 90% | – |
| 2.23 | O=C(Nc1ncn(-c2c(F)c(F)cc(F)c2F)n1)c1ccccc1C(F)(F)F [Compound I-1-93] | 100% | – |
